# What was measured:
# IRF5 = experiment: Microscopy-based IRF5 nuclear translocation assay in CAL-1 cells; conditions: human monocytic and pDC cell lines
# Experimental: (§1) CAL-1, THP1 or human primary cells were incubated with dTASL1 and other identified compounds (or the corresponding volume of DMSO vehicle) for 24 h or 48 h at the indicated concentration and subsequently stimulated with R848 (5 μg/ml) for the indicated time. Supernatant or cells were recovered for ELISA, SDS-PAGE or microscopy-based analysis.
# 5×10^5 CAL-1 cells in 500 μl medium (wildtype, drug-treated or gene-deficient as indicated) were seeded on poly-L-lysine hydrobromide (P6282, Sigma-Aldrich)-coated coverslips in 24-well cell culture plates and immediately stimulated with 5 μg/ml R848 (Invivogen) or left unstimulated. Afterwards, medium was removed and cells were fixed with 4% formaldehyde in PBS for 15 minutes at room temperature (RT), followed by blocking and permeabilization with 5% FBS and 0.3% Triton X-100 in PBS for 1 h at RT. […]
# Images were acquired on a Zeiss LSM-980 equipped with an AiryScan2 detector and processed in Zeiss ZEN version 3.6. Computational image analysis was performed with CellProfiler version 4.2.4 and data analyzed in R version 4.2.1 facilitating the following packages: ‘tidyverse’, ‘data.table’ and ‘ggpubr’. In brief nuclei and cytoplasmic regions were identified and nuclear to cytoplasmic median intensity ratios were calculated on a single cell level. […]
# CAL-1 pDCs = experiment: ELISA of R848-induced responses in CAL-1 pDCs; assay type: cell-based, human
# Experimental: as §1
# All enzyme-linked immunosorbent assay (ELISA) experiments were performed using diluted cell supernatant according to manufacturer's instructions. ELISA kits for human IL-6 (no. 88-7066-88), human CCL2 (no. 88-7399-88) and human TNF (no. 88-7346-77) were from Invitrogen. ELISA kit for human interferon beta […] was from PBL Assay Science (41410-1).
# Based on potency and kinetics, the compound C5 was selected for further characterization (FIG. 2E). C5 is an elongated molecule comprised of an aromatic 2-(4-ethoxyphenyl)-quinoline moiety followed by an amide bond and an aliphatic 2-methyl-1-propylpiperidine (FIG. 2F). To validate the scaffold and explore the chemical space at the aliphatic end of the compound, five analogues and an independently synthesized batch of C5 were obtained. […] Therefore the C5 compound was selected, which was named dTASL1 as its activity leads to TASL degradation, to assess effects on TLR7/8-induced signaling and responses.
# [1] = system: TNF production in human peripheral blood mononuclear cells (PBMCs); experiment: TNF ELISA, R848-stimulated PBMCs; assay type: cell-based; conditions: bulk PBMCs, dTASL1 10 µM 24 h, R848 (5 μg/ml) 16 h, n=8
# Text: HEK293T cells and THP1 cells were purchased from ATCC, THP1 DUAL/ISRE reporter cell lines from Invivogen. CAL-1 cells were provided by T. Maeda (Nagasaki University). Cell lines—except for CAL-1—were authenticated by short tandem repeat profiling and regularly tested for mycoplasma contamination. Human primary PBMCs were isolated from the blood of anonymous healthy donors as well as SLE patients included in our biobank approved by the ethics committee of the Medical University of Vienna (EK2071/2020 and EK1075/2021). CD14^+ monocytes were purified by magnetic-activated cell sorting (Miltenyi Biotec, #130-050-201) according to the manufacturers protocol. Purity of CD14^+ cells ranged between 80.8% and 94.2% as determined by flow cytometry analysis. […]
# Given that all evidence obtained seems to confirm the mechanistic precision of this chemical agent, any further consideration of assessing the therapeutic potential required evidence for activity in human primary cells relevant for SLE pathophysiology. The effect of dTASL1 in human peripheral blood mononuclear cells (PBMCs) was assessed. […] The impact of dTASL1 on TLR7/8 responses by directly monitoring IRF5 by confocal microscopy in B cells was assessed.
smiles,measurement,setting,value
"CCOc1ccc(-c2cc(C(=O)NCCCN3CCCCC3C)c3ccccc3n2)cc1 (stereo not shown) [dTASL1, 2-(4-ethoxyphenyl)-N-(3-(2-methylpiperidin-1-yl)propyl) quinoline-4-carboxamide]",TLR7/8-induced IRF5 activation,IRF5,specifically impairs TLR7/8-induced IRF5 activation
same,R848-induced responses,"CAL-1 pDCs; CAL-1 pDCs, 24 h pre-treatment, R848 (5 μg/ml) 16-24 h",strongly suppressed R848-induced responses
same,downstream type I IFN production,CAL-1 pDCs; human monocytic and pDC cell lines,specifically impairs TLR7/8-induced IRF5 activation and downstream type I IFN production
same,TNF production,[1],potently impaired TNF

# Reference: US20260364088A1, “TASL MIMICKING MOLECULES AND APPLICATIONS THEREOF” (CEMM - FORSCHUNGSZENTRUM FÜR MOLEKULARE MEDIZIN GMBH, priority 2022, published 2026)
